Test results taken from patent US7541367B2, “3-benzoimidazolyl-pyrazolopyridines useful in treating kinase disorders” (Janssen Pharmaceutica, N.V., priority 2005, dated 2009).

How the values were obtained:
[1] = system: HeLa cervical adenocarcinoma; test: Cell Proliferation Inhibition Assay (14C-thymidine incorporation), HeLa; type: cell-based; conditions: Homo sapiens, HeLa, HeLa cells;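 further: test compound in DMSO added to cells seeded in scintillating 96-well plates, DMSO-only wells as control, uptake of methyl 14C-thymidine into new DNA counted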
HER2 = molecular target: T1, HER2 (Homo sapiens, UniProt P04626); test: HER2 kinase screening assay (33P-ATP FlashPlate); type: biochemical; conditions: GST-HIS6 HER-2 aa 679 to 1255; 10 μM ATP; 1 hr at 30° C;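 further: Biotin-poly(GT) 4:1 peptide captured on streptavidin FlashPlate, 33P transfer from γ-ATP read by scintillation counting, lower incorporation means inhibition, 1% DMSO final, 100 µL reaction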
T1 construct: GST (Glutathione-S-Transferase) (N); HIS6 (N); thrombin cleavage site (N); purchased Proqinase, Freiburg, Germany
T1 sequence (P04626 679-1255): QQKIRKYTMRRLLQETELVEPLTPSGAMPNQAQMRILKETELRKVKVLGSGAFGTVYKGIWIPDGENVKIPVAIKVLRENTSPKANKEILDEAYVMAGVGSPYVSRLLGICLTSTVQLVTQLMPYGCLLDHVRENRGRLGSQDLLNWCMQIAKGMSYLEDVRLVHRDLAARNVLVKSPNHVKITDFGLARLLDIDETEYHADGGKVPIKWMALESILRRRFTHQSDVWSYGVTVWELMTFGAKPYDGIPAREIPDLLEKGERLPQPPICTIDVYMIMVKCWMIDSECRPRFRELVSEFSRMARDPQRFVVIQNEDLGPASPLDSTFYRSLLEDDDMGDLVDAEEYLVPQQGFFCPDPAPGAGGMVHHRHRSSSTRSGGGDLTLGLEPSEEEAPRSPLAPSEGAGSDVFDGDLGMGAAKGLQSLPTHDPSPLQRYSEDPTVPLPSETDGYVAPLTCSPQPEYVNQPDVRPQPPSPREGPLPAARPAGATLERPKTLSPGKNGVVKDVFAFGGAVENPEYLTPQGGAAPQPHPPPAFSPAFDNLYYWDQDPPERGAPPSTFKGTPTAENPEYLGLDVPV

A375 malignant melanoma = test: Cell Proliferation Inhibition Assay (14C-thymidine incorporation), A375; type: cell-based; conditions: Homo sapiens, A-375, A375 cells;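 further: proliferation measured by radiolabelled thymidine uptake into new DNA, counted in scintillating 96-well plates, compound-treated wells compared with DMSO-only control wells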
Aurora-A = molecular target: T2, Aurora-A (Mus musculus, UniProt P97477); test: Aurora-A kinase screening assay (33P-ATP FlashPlate); type: biochemical; conditions: 10 μM ATP, 1 hr at 30° C;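 further: His-tagged mouse Aurora-A phosphorylating a biotinylated peptide captured on streptavidin plates, read as 33P uptake by scintillation counting, 1% DMSO, inhibition scaled between per-plate maximum and minimum signals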
T2 construct: polyhistidine (N)
T2 sequence (P97477 1-395): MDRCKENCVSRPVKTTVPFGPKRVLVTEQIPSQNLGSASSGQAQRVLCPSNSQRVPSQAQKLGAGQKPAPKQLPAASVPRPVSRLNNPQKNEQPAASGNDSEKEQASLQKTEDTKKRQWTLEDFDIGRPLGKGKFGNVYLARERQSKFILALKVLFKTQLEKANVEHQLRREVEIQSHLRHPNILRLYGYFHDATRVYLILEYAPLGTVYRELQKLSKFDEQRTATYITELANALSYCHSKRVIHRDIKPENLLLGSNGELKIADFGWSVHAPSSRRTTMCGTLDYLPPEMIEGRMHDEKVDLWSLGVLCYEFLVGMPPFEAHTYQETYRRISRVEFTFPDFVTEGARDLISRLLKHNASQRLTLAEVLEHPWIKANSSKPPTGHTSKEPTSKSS

HCT-116 colon carcinoma = test: Cell Proliferation Inhibition Assay (14C-thymidine incorporation), HCT-116; type: cell-based; conditions: Homo sapiens, HCT-116, HCT-116 cells;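 further: proliferation measured as methyl 14C-thymidine uptake into new DNA, counted in 96-well scintillating microplates, compared with DMSO-only control wells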
CDK1 = molecular target: T3, CDK1 (Homo sapiens, UniProt P06493); test: CDK-1 kinase screening assay (33P-ATP FlashPlate); type: biochemical; conditions: human CDK1 with cyclin B; 10 μM ATP; 1 hr at 30° C
T3 construct: purchased New England Biolabs, Beverly, Mass; 6020; host or cells: insect cells
T3 sequence (P06493 whole entry): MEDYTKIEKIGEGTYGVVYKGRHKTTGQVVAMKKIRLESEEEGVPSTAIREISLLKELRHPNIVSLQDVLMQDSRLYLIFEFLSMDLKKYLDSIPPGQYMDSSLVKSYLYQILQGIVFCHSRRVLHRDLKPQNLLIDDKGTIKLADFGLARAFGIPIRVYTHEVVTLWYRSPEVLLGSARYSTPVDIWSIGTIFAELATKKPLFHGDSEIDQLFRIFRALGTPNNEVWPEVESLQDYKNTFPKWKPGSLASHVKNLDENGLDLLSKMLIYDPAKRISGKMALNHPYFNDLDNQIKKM
T3 sequence (P14635 whole entry partner): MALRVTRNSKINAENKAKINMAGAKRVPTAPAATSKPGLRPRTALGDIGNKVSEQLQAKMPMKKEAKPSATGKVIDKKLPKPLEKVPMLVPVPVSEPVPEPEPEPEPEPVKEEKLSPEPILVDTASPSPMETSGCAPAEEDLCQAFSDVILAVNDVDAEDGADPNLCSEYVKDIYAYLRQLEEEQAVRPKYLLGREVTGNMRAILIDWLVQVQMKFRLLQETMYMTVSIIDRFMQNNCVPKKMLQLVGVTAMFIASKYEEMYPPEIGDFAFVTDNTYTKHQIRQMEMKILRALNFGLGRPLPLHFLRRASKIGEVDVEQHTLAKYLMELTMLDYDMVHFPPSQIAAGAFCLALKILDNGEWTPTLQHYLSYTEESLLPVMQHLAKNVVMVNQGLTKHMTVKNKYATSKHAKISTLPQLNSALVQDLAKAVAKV
Experimental: A kinase reaction mixture was prepared containing 50 mM Tris-HCl pH=8, 10 mM MgCl2, 0.1 mM […], 1 mM DTT, 10 μM ATP, 0.025 μM biotinylated histone-H1 peptide substrate and 0.2 μCuries per well ^33P-γ-ATP (2000-3000 Ci/mmol). 70 μL of the kinase reaction mixture was dispensed into the well of a streptavidin coated FlashPlate™ (Cat. # SMP103, NEN, Boston, Mass.).
Test compound stock in 100% DMSO (1 μL) was added to the wells resulting in a final concentration of 1% DMSO in the reaction with a 100 μL final reaction volume. Each enzyme was diluted in 50 mM Tris-HCl pH=8.0, 0.11% BSA and 30 μL was added to each well to initiate the reaction. The reaction was incubated for one hour at 30° C. At the end of the 1 hr incubation, the reaction was terminated by aspirating the mixture from the plate and washing the wells twice with PBS containing 100 mM EDTA. The biotinylated peptide substrate became immobilized on the Flashplate™ and the incorporation of ^33P-γ-ATP was measured by reading the plate on a scintillation counter. Inhibition of the enzymatic activity was measured by observing a reduced amount of ^33P-γ-ATP incorporated into the immobilized peptide.
The CDK1 enzyme was isolated from insect cells expressing both the human CDK1 catalytic subunit (Accession number NM_001786) and its positive regulatory subunit cyclin B (New England Biolabs, Beverly, Mass.; Cat. # 6020). The assay used 30 ng of the N-terminal biotinylated peptide biotin-[…]-amide (Cyclin dependent kinase 1) per well.
A maximum and minimum signal for the assay was determined on each plate. The percent inhibition of a test compound was calculated according to the formula: […]
For a series of test concentrations, the IC50 was derived by graphing percent inhibition against the log of the concentrations tested for a given compound with results shown in Table 1.
For compounds with multiple values, each value represents a separate assay result.

RET = molecular target: T4, RET (Homo sapiens, UniProt P07949); test: RET kinase screening assay (33P-ATP FlashPlate); type: biochemical; conditions: human RET kinase domain; 10 μM ATP; 1 hr at 30° C;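 further: biotinylated peptide substrate captured on streptavidin FlashPlate, 33P phosphate transfer read by scintillation counting, 1% DMSO, lower incorporation means inhibition, percent relative to per-plate maximum and minimum signals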
T4 construct: polyhistidine (N)
T4 sequence (P07949 658-1114 limits assumed): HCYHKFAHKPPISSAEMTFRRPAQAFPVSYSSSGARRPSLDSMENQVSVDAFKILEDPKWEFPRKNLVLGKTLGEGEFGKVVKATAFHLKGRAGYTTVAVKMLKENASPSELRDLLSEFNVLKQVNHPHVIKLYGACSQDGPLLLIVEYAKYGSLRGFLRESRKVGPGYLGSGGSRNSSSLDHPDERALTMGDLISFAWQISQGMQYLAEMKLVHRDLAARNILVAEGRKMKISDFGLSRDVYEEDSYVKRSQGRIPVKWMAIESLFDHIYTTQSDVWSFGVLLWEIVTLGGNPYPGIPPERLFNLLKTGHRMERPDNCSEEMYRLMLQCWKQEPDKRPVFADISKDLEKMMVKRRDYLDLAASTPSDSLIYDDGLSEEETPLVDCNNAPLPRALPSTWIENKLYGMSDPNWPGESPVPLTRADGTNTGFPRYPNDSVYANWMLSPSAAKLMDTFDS

VEGF-R2 = molecular target: T5, VEGF-R2 (Rattus norvegicus, UniProt O08775); test: VEGF-R2 kinase screening assay (33P-ATP FlashPlate); type: biochemical; conditions: rat VEGF-R2 kinase domain; 10 μM ATP; 1 hr at 30° C;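 further: Read-out is ³³P incorporation from ³³P-γ-ATP into biotinylated peptide substrate captured on streptavidin FlashPlate, counted by scintillation, 1% DMSO final, inhibition scaled between per-plate maximum and minimum signals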
T5 construct: polyhistidine (N)
T5 sequence (O08775 786-1343): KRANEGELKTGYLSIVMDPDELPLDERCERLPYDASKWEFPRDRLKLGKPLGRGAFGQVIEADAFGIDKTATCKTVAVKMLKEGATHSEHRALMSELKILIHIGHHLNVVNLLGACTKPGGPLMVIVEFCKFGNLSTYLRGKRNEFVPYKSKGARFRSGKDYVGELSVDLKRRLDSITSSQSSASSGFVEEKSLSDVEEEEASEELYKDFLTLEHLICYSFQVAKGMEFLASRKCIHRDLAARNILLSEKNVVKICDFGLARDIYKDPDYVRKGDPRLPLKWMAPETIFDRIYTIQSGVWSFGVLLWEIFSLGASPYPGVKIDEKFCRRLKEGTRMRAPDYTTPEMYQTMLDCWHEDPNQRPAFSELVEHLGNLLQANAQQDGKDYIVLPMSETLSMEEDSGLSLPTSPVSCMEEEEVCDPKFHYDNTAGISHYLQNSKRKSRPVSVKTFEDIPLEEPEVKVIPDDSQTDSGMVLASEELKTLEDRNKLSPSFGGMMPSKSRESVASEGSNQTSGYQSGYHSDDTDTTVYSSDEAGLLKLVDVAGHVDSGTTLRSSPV

Structure (SMILES)	IC50 [1] [nM]	IC50 (HER2) [nM]	IC50 (A375 malignant melanoma) [nM]	IC50 (Aurora-A) [nM]	IC50 (HCT-116 colon carcinoma) [nM]	IC50 (CDK1) [nM]	IC50 (RET) [nM]	IC50 (VEGF-R2) [nM]
CN(C)Cc1cncc(-c2cnc3[nH]nc(-c4nc5cc(N6CCN(C)CC6)ccc5[nH]4)c3c2)c1 [Cpd 88, dimethyl-(5-{3-[5-(4-methyl-piperazin-1-yl)-1H-benzoimidazol-2-yl]-1H-pyrazolo[3,4-b]pyridin-5-yl}-pyridin-3-ylmethyl)-amine]	861	1920	885	281	431	6.14	104	120
CC(C)NCc1cccc2[nH]c(-c3n[nH]c4ncc(-c5cncc6ccccc56)cc34)nc12 [Cpd 13, isopropyl-[2-(5-isoquinolin-4-yl-1H-pyrazolo[3,4-b]pyridin-3-yl)-1H-benzoimidazol-4-ylmethyl]-amine]	134	> 100000	140	3620	109	12.8	> 100000	~1000
CNCc1cncc(-c2cnc3[nH]nc(-c4nc5ccc(C#N)cc5[nH]4)c3c2)c1 [Cpd 105, 2-[5-(5-methylaminomethyl-pyridin-3-yl)-1H-pyrazolo[3,4-b]pyridin-3-yl]-3H-benzoimidazole-5-carbonitrile]	120	> 10000	526	> 1000	685	1.7	> 10	> 10
CCOC(=O)c1cncc(-c2cnc3[nH]nc(-c4nc5c(COC)cccc5[nH]4)c3c2)c1 [Cpd 70, 5-[3-(4-methoxymethyl-1H-benzoimidazol-2-yl)-1H-pyrazolo[3,4-b]pyridin-5-yl]-nicotinic acid ethyl ester]	1940	> 100000	38.7	~100000	55.4	> 100000	> 100000	~100000
CNCc1cncc(-c2cnc3[nH]nc(-c4nc5c(COC)cccc5[nH]4)c3c2)c1C [Cpd 62, {5-[3-(4-methoxymethyl-1H-benzoimidazol-2-yl)-1H-pyrazolo[3,4-b]pyridin-5-yl]-4-methyl-pyridin-3-ylmethyl}-methyl-amine]	1180	> 100000	62.3	1750	229	68.1	~10000	2790
COCc1cccc2[nH]c(-c3n[nH]c4ncc(-c5ccc(N6CCOCC6)nc5)cc34)nc12 [Cpd 66, 3-(4-methoxymethyl-1H-benzoimidazol-2-yl)-5-(6-morpholin-4-yl-pyridin-3-yl)-1H-pyrazolo[3,4-b]pyridine]	1080	> 100000	4.4	> 1000	20.4	> 100000	> 100000	121
COCc1cccc2[nH]c(-c3n[nH]c4ncc(-c5ccc(N6CCN(C(=O)OC(C)(C)C)CC6)nc5)cc34)nc12 [Cpd 67, 4-{5-[3-(4-methoxymethyl-1H-benzoimidazol-2-yl)-1H-pyrazolo[3,4-b]pyridin-5-yl]-pyridin-2-yl}-piperazine-1-carboxylic acid tert-butyl ester]	1980	> 100000	10.9	> 100000	24.5	> 10000	> 100000	> 10000
COCc1cccc2[nH]c(-c3n[nH]c4ncc(-c5c[nH]c6ccccc56)cc34)nc12 [Cpd 39, 5-(1H-indol-3-yl)-3-(4-methoxymethyl-1H-benzoimidazol-2-yl)-1H-pyrazolo[3,4-b]pyridine]	1680	> 100000	35.8	> 1000	26	1210	> 100000	266
O=C(NC1CCCC1)c1cccc2[nH]c(-c3n[nH]c4ncc(-c5cncc6ccccc56)cc34)nc12 [Cpd 27, 2-(5-isoquinolin-4-yl-1H-pyrazolo[3,4-b]pyridin-3-yl)-1H-benzoimidazole-4-carboxylic acid cyclopentylamide]	163	> 10000	75.2	> 1000	78.7	31.7	> 1000	1040
COCc1cccc2[nH]c(-c3n[nH]c4ncc(-c5ccc(S(N)(=O)=O)cc5)cc34)nc12 [Cpd 36, 4-[3-(4-methoxymethyl-1H-benzoimidazol-2-yl)-1H-pyrazolo[3,4-b]pyridin-5-yl]benzenesulfonamide]	1430	> 100000	212	> 1000	43.4	546	> 10000	436
CN1CCN(C(=O)c2cccc3[nH]c(-c4n[nH]c5ncc(-c6cncc7ccccc67)cc45)nc23)CC1 [Cpd 23, [2-(5-isoquinolin-4-yl-1H-pyrazolo[3,4-b]pyridin-3-yl)-1H-benzoimidazole-4-yl]-(4-methyl-piperazin-1-yl)-methanone]	6580	> 10000	2760	10900	3170	1630	> 100000	6930
COCc1cccc2[nH]c(-c3n[nH]c4ncc(-c5ccc(OC)nc5)cc34)nc12 [Cpd 63, 3-(4-methoxymethyl-1H-benzoimidazol-2-yl)-5-(6-methoxy-pyridin-3-yl)-1H-pyrazolo[3,4-b]pyridine]	9960	> 100000	76.3	~100000	120	> 10000	> 100000	319
COCc1cccc2[nH]c(-c3n[nH]c4ncc(-c5cncnc5)cc34)nc12 [Cpd 68, 3-(4-methoxymethyl-1H-benzoimidazol-2-yl)-5-pyrimidin-5-yl-1H-pyrazolo[3,4-b]pyridine]	9910	> 100000	160	~10000	325	1280	> 100000	115
COCc1cccc2[nH]c(-c3n[nH]c4ncc(-c5cncc(CN(C)C)c5C)cc34)nc12 [Cpd 61, {5-[3-(4-methoxymethyl-1H-benzoimidazol-2-yl)-1H-pyrazolo[3,4-b]pyridin-5-yl]-4-methyl-pyridin-3-ylmethyl}-dimethyl-amine]	1830	> 10000	219	321	99.2	283	> 10000	4110
